From US11066398B2, “Small molecule c-Myc inhibitors” (THE SCRIPPS RESEARCH INSTITUTE, priority 2013, dated 2021)
In brackets after ≈: the same amount, converted by molar mass. Entries after “also recorded” stand apart in the source; their conditions may differ. Read-outs that look alike come from different tables or passages of the source.

Tests used:
N-Myc = N-Myc (Homo sapiens, UniProt P04198); details: CEF, dose response
Experimental: (§5) Data from a representative experiment conducted with the cells derived from a single chicken embryo.
(§6) The assay of oncogene-induced cellular transformation in CEF was also used to determine selectivity of KJ-Pyr-9 for Myc.
(§7) Assay for oncogenic transformation in cell culture. […] CEF were infected with a series of ten-fold dilutions of the indicated virus. Compounds were added to the nutrient agar overlay. Additional compound-containing overlay was added every 3 days until experimental end point.

human fibroblasts (hFB) = details: 25 or 50 μM, 24 hrs
MDA-MB-231 = details: MDA-MB-231, 216 hrs, 2.5% FBS
[1] = tested on: QEF transformed by methylcholanthrene (QT6); details: 25 or 50 μM, 24 hrs
[2] = tested on: NDRG1 (N-myc downregulated gene 1); assay: NDRG1 expression by Western blot in MDA-MB-231 and NCI-H460 cells; type: cell-based, human; details: 20 μM, 24 hrs
Experimental: (§1) NCI-H460 cells were grown in RPMI medium, and MDA-MB-231 cells were grown in DMEM medium; both media contained 10% FBS. KJ-Pyr-9 and 10058-F4 were added at a concentration of 20 μM and the cells were treated for 24 hrs before Western blot analysis.
(§2) Interference with Myc transcriptional activity of Myc affects the transcription of a large number of target genes and can function as activator or repressor. […] NDRG1 is a direct transcriptional target of Myc that acts as a repressor of this gene. For comparison, we used the previously identified inhibitor of MYC-MAX dimerization that binds to the disordered monomer and prevents Myc from adopting a conformation needed for the interaction with MAX (Wang et al., Mol. Cancer Ther. 6:2399-2408, 2007; and Huang et al., Exp. Hematol. 34:1480-1489, 2006). Both KJ-Pyr-9 and 10058-F4 cause an increase of NDRG1 expression (FIG. 4).

MOLT-4 = details: MOLT-4, 25 or 50 μM, 24 hrs
[3] = tested on: normal quail embryo fibroblasts (QEF); details: 25 or 50 μM, 24 hrs
v-Src = v-Src (Rous sarcoma virus subgroup A, UniProt P00524); details: CEF, dose response
Experimental: as §5, §6, §7

K-562 = details: K-562, 25 or 50 μM, 24 hrs
[4] = tested on: xenograft of MDA-MB-231 cells; assay: MDA-MB-231 xenograft in nude mice; type: in vivo, mouse; details: 10 mg/kg daily i.p.
Experimental: When tumors reached a volume of 100 mm^3 half of the mice were given daily i.p. injections of 10 mg/kg KJ-PYR-9 and the other half received vehicle only. Tumor growth was followed for 31 days. (A) Tumor volumes of treated and untreated animals. (B) Tumor weights of treated and untreated animals. (C) Time course of tumor volumes.
To test the in vivo effectiveness of KJ-Pyr-9, nude mice received a xenograft of MDA-MB-231 cells suspended in Matrigel and injected subcutaneously into the left and right flanks. When the tumors had reached an average volume of 100 mm^3, mice were treated daily with 10 mg/kg KJ-Pyr-9 or vehicle control by intraperitoneal injection for 31 days. […] At the conclusion of the experiment the tumors were extracted and weighed. […] Treatment with KJ-Pyr-9 had no effect on the body weight of the animals.
Xenograft experiments. […] Tumor volume and mouse weight were measured daily. […] Tumors were weighed.
Statistical methods. Tumor volumes were calculated using (length)×(width)^2. Tumor volumes were evaluated using Efron's Bootstrap (ISBN:0412042312) procedures as implemented in the R statistics program (Wu and Houghton, J. Biopharma. Stat. 19:755-762, 2009). Mean volumes and 90% confidence intervals were determined using bootstrap resampling with 10^6 randomizations and graphed using the ggplot2 package (ISBN:0387981403). P-values were determined using the resampling permutation method with 10^6 randomizations.

[5] = tested on: QEF oncogenically transformed by the v-jun oncogene (VJ); details: 25 or 50 μM, 24 hrs
MYC^332-439 with MAX = MYC^332-439 with MAX (Homo sapiens, UniProt P01106); details: HEK293 cells, 20 μM, compared to PKA RII:RII control biosensor
Experimental: (§8) We used an efficient and sensitive PCA biosensor which is based on the PPI involving the full length MAX protein and the C-terminal MAX-interaction-domain in MYC (MYC^332-439).
(§9) HEK293 cells were grown in Dulbecco's Modified Eagle's Medium (DMEM) supplemented with 10% fetal bovine serum (FBS). The indicated Rluc-PCA expression constructs were transiently overexpressed in a 24-well plate format. […] Following treatment, the growth medium was exchanged and cells were resuspended in phosphate buffered saline (PBS). Cell suspensions were transferred to white walled 96-well plates and were subjected to bioluminescence analysis using the LMax II 384 luminometer (Molecular Devices). Rluc bioluminescence signals were integrated for 10 sec following addition of the Rluc substrate benzyl-coelenterazine to intact cells (5 μM; Nanolight).

[6] = Pharmacokinetics and tolerability in mice; type: in vivo, mouse; details: for concentration at 4 h: ip, mice, 10 mg/kg intraperitoneally
Experimental: (§3) In vivo activity of KJ-Pyr-9: Previous Myc inhibitors have not been effective in animal model studies. These failures resulted from insufficient affinity toward Myc and poor pharmacokinetic properties.
(§4) Pharmacokinetics. Three mice were injected with 10 mg/kg KJ-Pyr-9 dissolved in 10:10:80 Tween-80:DMSO:5% Dextrose/water intraperitoneally. At 4 hours concentrations of KJ-Pyr-9 in the plasma and in the brain were 3.5 and 12.4 μM respectively. Rats were dosed with 1 mg/kg i.v.; elimination half lives in plasma were approximately 1.84 h (rats).

Solubility in water = type: physicochemical
MAX homodimerization = MAX homodimerization (Homo sapiens, UniProt P61244); details: HEK293 cells, 20 μM
Experimental: as §8, §9

ATG-Myc = ATG-Myc (Homo sapiens, UniProt P01106); assay: Myc-induced oncogenic transformation (focus assay) in chicken embryo fibroblasts; type: cell-based
Pharmacokinetics in rats = type: in vivo, rat; details: 1 mg/kg i.v.
Experimental: as §3, §4

v-Jun = v-Jun (Avian sarcoma virus, UniProt P05411); details: CEF, dose response
Experimental: as §5, §6, §7

HL-60 = details: HL-60, 25 or 50 μM, 24 hrs
[7] = tested on: cells transformed by v-myc (Q8, QEF/MC29)
MYC = assay: Myc levels by Western blot in MDA-MB-231 and NCI-H460 cells; type: cell-based, human; details: 20 μM, 24 hrs
Experimental: as §1, §2

NCI-H460 = details: NCI-H460, 72 hrs, 2.5% FBS
NDRG1 = details: 10 mg/kg daily i.p., Western blot of frozen tumor samples
Experimental: In order to determine drug activity in tumor cells, protein lysates were prepared from frozen tumor samples and analyzed by Western blot.
Xenograft experiments. […] Cells were suspended in high concentration Matrigel (BD Biosciences) prior to injection. Xenograft tumors were allowed to grow until the average volume of the tumors reached 100 mm^3 as measured by external calipers. At this point, the mice were divided into two groups. […] Tumor volume and mouse weight were measured daily. Vehicle used in all cases was 10:10:80 DMSO:Tween-80:5% dextrose in water. The mice were treated for a period of 31 days. At the end of the experiment, the mice were euthanized and tumors excised. Tumors were weighed. Samples of each tumor were fixed in formalin for histology and frozen for Western blotting. All vertebrate experiments were conducted with the approval of the TSRI IACUC.

[8] = tested on: Burkitt's lymphoma cell lines (Akata, Ramos, Raji); details: 72 hours
Experimental: (A) Akata, (B) Ramos, (C) Raji. 10^3 cells were seeded per well on 96-well plates and were treated with the indicated concentrations of KJ-Pyr-9 for 72 hours. Cell proliferation was determined by resazurin fluorescence.

SW-480 = details: SW-480, 25 or 50 μM, 24 hrs
SUM-159PT = details: 120 hrs, 2.5% FBS

Chain of ATG-Myc (P01106 whole entry): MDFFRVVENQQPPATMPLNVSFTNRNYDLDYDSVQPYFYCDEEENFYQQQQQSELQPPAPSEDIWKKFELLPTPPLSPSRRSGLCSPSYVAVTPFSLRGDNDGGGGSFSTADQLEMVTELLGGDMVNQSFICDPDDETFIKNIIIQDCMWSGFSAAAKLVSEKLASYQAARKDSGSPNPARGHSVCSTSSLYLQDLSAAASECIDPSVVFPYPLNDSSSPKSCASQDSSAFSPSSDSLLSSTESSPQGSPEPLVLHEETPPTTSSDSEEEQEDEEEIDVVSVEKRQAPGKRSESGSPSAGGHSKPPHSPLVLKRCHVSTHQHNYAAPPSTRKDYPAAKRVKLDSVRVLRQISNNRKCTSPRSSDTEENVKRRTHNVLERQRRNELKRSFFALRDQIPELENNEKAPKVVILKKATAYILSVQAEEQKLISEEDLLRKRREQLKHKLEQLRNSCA
Chain of N-Myc (P04198 whole entry, species assumed): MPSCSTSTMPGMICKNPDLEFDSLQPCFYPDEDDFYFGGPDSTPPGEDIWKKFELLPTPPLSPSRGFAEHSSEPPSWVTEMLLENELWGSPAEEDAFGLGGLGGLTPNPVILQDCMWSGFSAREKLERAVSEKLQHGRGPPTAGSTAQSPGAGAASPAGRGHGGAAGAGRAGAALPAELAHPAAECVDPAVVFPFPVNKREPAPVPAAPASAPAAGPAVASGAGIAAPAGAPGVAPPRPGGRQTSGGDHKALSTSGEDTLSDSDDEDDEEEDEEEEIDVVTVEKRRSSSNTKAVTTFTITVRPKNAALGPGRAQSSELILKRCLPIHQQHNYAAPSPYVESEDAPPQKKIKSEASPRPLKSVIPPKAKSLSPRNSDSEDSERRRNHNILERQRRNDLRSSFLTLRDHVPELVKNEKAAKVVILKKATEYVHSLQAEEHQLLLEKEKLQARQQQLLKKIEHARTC
Chain of v-Src (P00524 whole entry): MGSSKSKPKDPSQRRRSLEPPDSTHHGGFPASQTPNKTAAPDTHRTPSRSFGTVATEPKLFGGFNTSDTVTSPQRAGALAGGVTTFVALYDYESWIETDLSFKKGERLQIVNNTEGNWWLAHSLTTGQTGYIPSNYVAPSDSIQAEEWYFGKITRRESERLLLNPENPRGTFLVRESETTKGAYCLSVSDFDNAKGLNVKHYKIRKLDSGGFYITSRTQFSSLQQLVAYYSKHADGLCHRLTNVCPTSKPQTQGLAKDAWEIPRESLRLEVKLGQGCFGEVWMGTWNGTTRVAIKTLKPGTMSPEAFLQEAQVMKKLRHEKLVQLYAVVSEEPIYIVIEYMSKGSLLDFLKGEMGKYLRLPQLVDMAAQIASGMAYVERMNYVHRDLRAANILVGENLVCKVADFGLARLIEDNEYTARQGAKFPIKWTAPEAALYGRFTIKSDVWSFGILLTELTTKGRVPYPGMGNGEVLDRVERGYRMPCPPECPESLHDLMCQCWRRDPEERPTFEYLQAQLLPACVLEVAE
Chain of v-Jun (P05411 whole entry): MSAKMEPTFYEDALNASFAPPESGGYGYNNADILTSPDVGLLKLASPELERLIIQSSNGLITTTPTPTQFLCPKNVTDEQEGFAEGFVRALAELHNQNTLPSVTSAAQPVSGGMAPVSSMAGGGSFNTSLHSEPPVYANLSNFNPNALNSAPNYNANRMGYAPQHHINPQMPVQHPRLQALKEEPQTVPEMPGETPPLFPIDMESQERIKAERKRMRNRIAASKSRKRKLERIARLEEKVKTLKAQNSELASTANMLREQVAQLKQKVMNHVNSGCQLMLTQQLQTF
Chain of MAX homodimerization (P61244 whole entry): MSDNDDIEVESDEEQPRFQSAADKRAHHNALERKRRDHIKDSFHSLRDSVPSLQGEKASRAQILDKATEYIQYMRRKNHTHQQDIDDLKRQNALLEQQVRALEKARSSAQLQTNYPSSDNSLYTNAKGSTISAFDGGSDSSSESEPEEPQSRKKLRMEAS
Chain of MYC^332-439 with MAX (P01106 347-454): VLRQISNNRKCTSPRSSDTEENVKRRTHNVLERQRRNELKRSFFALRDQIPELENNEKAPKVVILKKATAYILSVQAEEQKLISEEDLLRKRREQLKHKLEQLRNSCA

NC(=O)c1ccc(-c2cc(-c3ccc([N+](=O)[O-])cc3)nc(-c3ccco3)c2)cc1 [CG-RS-44, 4-(2-(furan-2-yl)-6-(4-nitrophenyl)pyridin-4-yl)benzamide]
Inhibition of oncogenic activity of N-Myc (N-Myc): strongly inhibited | Cell proliferation (human fibroblasts (hFB)): not affected | Cell proliferation (MDA-MB-231): inhibited | Cell growth [1]: only slightly impaired in their growth | NDRG1 expression [2]: increase | Cell proliferation (MOLT-4): strongly inhibited | Cell growth [3]: only slightly impaired in their growth | Inhibition of oncogenic transformation by v-Src (v-Src): unaffected | Cell proliferation (K-562): strongly inhibited | Body weight of the animals ([4]; 31 days): no effect | Tumor volume ([4]; by day 31): had not increased significantly | Tumor weight ([4]; end of experiment (31 days)): halt tumor growth | Onset of inhibition of tumor growth ([4]; nude mice): noted after eight days of treatment | Cell growth [5]: only slightly impaired in their growth | Complex formation of MYC^332-439 with MAX (Rluc PCA) (MYC^332-439 with MAX): selectively reduced complex formation | Acute toxicity ([6]; dose of 10 mg/kg): no signs of acute toxicity | concentration at 4 h ([6]; mouse, brain, read-out: Concentration in the brain): 12.4 µM | Blood brain barrier penetration ([6]; mouse, in vivo): crossed the blood brain barrier | Brain versus blood concentration ([6]; mouse, in vivo): higher concentrations in brain tissue than in the blood | concentration at 4 h ([6]; mouse, plasma, read-out: Concentration in the plasma): 3.5 µM | solubility (Solubility in water): 12.5 µM (≈ 4.82 µg/mL) | MAX homodimerization (Rluc PCA) (MAX homodimerization): interfered with MAX homodimerization, albeit to a lesser degree | Dose dependence of inhibition of ATG-Myc focus formation (ATG-Myc; 0-20 μM (0, 1.25, 2.5, 5, 10, and 20 μM)): dose-dependent inhibition | Comparison of IC50 values for ATG-Myc focus formation (ATG-Myc; CEF assay): better than all analogs tested | Inhibition of ATG-Myc focus formation (ATG-Myc; CEF focus assay, concentration of 10 μM): no foci formation | Inhibition of Myc oncogenic activity in CEF transformation assay (ATG-Myc; CEF, ATG-Myc, listed as KJ-Pyr-9): effective; also recorded: strongly inhibited | Elimination half life in plasma (Pharmacokinetics in rats): approximately 1.84 h | Inhibition of oncogenic transformation by v-Jun (v-Jun): inhibited at significantly higher concentrations | Cell proliferation (HL-60): strongly inhibited | Cell growth [7]: significantly more affected | Effect on Myc levels (MYC): only a slight effect | Cell proliferation (NCI-H460): inhibited | Expression of NDRG1 in tumor lysates (NDRG1): significantly enhanced | Cell proliferation [8]: very sensitive | Cell proliferation (SW-480): not affected | Cell proliferation (SUM-159PT): inhibited
